According to patent publication US6949648B2, “Condensed pyrazole derivatives, process for producing the same and use thereof” (Takeda Pharmaceutical Company Limited, priority 2000, dated 2005):
Counter-ions that a name gives are not always drawn.

Row | SMILES | melting point
1 | Cc1nn(-c2ccccn2)c2ncc(C(=O)NC3CCCCC3)c(O)c12 [Example 1-8, N-Cyclohexyl-4-hydroxy-3-methyl-1-(2-pyridinyl)-1H-pyrazolo[3,4-b]pyridine-5-carboxamide] | > 300 °C
2 | Oc1ccnc2c1cnn2-c1ccccn1 [Example 1-7, 1-(2-Pyridinyl)-1H-pyrazolo[3,4-b]pyridin-4-ol] | 192 to 194 °C
3 | CCc1nn(-c2ccccn2)c2[nH]c3cc(F)c(F)cc3c(=O)c12 [Example 2-201, 3-Ethyl-6,7-difluoro-1-(2-pyridinyl)-1,9-dihydro-4H-pyrazolo[3,4-b]quinolin-4-one] | 247 to 248 °C
4 | CCCCCc1c2ccccc2nc2c1c(C)nn2-c1ccccn1 [Example 2-106, 3-Methyl-4-pentyl-1-(2-pyridinyl)-1H-pyrazolo[3,4-b]quinoline] | 121 to 122 °C
5 | CCCN(C)c1c2ccccc2nc2c1c(C)nn2-c1ccccn1 [Example 2-9, N-Methyl-N-[3-methyl-1-(2-pyridinyl)-1H-pyrazolo[3,4-b]quinolin-4-yl]-N-propylamine] | 110 to 112 °C
6 | Cc1nn(-c2ccccn2)c2nc3cc(F)c(F)cc3c(Cl)c12 [Example 2-90, 4-Chloro-6,7-difluoro-3-methyl-1-(2-pyridinyl)-1H-pyrazolo[3,4-b]quinoline] | 175 to 176 °C
7 | Cc1nn(-c2ccccn2)c2[nH]c3cc(C(=O)O)ccc3c(=O)c12 [Example 2-68, 3-Methyl-4-oxo-1-(2-pyridinyl)-4,9-dihydro-1H-pyrazolo[3,4-b]quinoline-7-carboxylic acid] | > 300 °C
8 | CC(C)c1nn(-c2ccccn2)c2nc3ccccc3c(Cl)c12 [Example 2-172, 4-Chloro-3-isopropyl-1-(2-pyridinyl)-1H-pyrazolo[3,4-b]quinoline] | 146 to 148 °C
9 | Cc1nn(-c2ccncc2)c2nc3cc(F)c(F)cc3c(Cl)c12 [Example 2-204, 4-Chloro-6,7-difluoro-3-methyl-1-(4-pyridinyl)-1H-pyrazolo[3,4-b]quinoline] | 226 to 228 °C
10 | Cc1nn(-c2ccccn2)c2ncc(C(=O)Nc3ccccc3F)c(O)c12 [Example 1-12, N-(2-Fluorophenyl)-4-hydroxy-3-methyl-1-(2-pyridinyl)-1H-pyrazolo[3,4-b]pyridine-5-carboxamide] | > 300 °C
11 | O=C(O)c1nn(-c2ccccn2)c2[nH]c3ccccc3c(=O)c12 [Example 2-181, 4-Oxo-1-(2-pyridinyl)-4,9-dihydro-1H-pyrazolo[3,4-b]quinoline-3-carboxylic acid] | 306 to 309 °C
12 | Cc1cccc2c(Cl)c3c(C)nn(-c4ccccn4)c3nc12 [Example 2-35, 4-Chloro-3,8-dimethyl-1-(2-pyridinyl)-1H-pyrazolo[3,4-b]quinoline] | 170 to 172 °C
13 | Cc1nn(-c2ccncc2)c2nc3ccccc3c(N)c12.Cl.Cl | 259 to 266 °C
14 | Cc1nn(-c2cccnc2)c2nc3ccccc3c(Cl)c12 [Example 2-136, 4-Chloro-3-methyl-1-(3-pyridinyl)-1H-pyrazolo[3,4-b]quinoline] | 144 to 145 °C
15 | Cc1cccnc1-n1nc(C)c2c(N)c3cccc(C)c3nc21 [Example 2-134, 3,8-Dimethyl-1-(3-methyl-2-pyridinyl)-1H-pyrazolo[3,4-b]quinolin-4-ylamine] | 199 to 202 °C
16 | Cc1nn(Cc2cccnc2)c2[nH]c3ccccc3c(=O)c12 [Example 2-191, 3-Methyl-1-(3-pyridinylmethyl)-1,9-dihydro-4H-pyrazolo[3,4-b]quinolin-4-one] | 285 to 288 °C
17 | Cc1nn(-c2ccccn2)c2[nH]c3cccc(Cl)c3c(=O)c12 [Example 2-69, 5-Chloro-3-methyl-1-(2-pyridinyl)-1,9-dihydro-4H-pyrazolo[3,4-b]quinolin-4-one] | 212 to 213 °C
18 | Cc1cccnc1-n1nc(C)c2c(=O)c3cccc(C)c3[nH]c21 (as salt: salt) [Example 2-135, 3,8-Dimethyl-1-(3-methyl-2-pyridinyl)-1,9-dihydro-4H-pyrazolo[3,4-b]quinolin-4-one] | 193 to 195 °C
19 | Cc1nn(-c2ncccn2)c2[nH]c3ccccc3c(=O)c12 [Example 2-146, 3-Methyl-1-(2-pyrimidinyl)-1,9-dihydro-4H-pyrazolo[3,4-b]quinolin-4-one] | 263 to 264 °C
20 | COC(=O)c1ccc2[nH]c3c(c(C)nn3-c3ccccn3)c(=O)c2c1 [Example 2-64, Methyl 3-methyl-4-oxo-1-(2-pyridinyl)-4,9-dihydro-1H-pyrazolo[3,4-b]quinoline-6-carboxylate] | 265 to 266 °C
21 | Cc1nn(-c2ccccn2)c2ncc(C(=O)Nc3ccc(F)c(F)c3)c(O)c12 [Example 1-15, N-(3,4-Difluorophenyl)-4-hydroxy-3-methyl-1-(2-pyridinyl)-1H-pyrazolo[3,4-b]pyridine-5-carboxamide] | > 300 °C
22 | Cc1ccc(-n2nc(C)c3c(Cl)c4ccccc4nc32)nc1 [Example 2-115, 4-Chloro-3-methyl-1-(5-methyl-2-pyridinyl)-1H-pyrazolo[3,4-b]quinoline] | 197 to 200 °C

Row | SMILES | melting point
23 | Cc1cccc(-n2nc(C)c3c(=O)c4ccccc4[nH]c32)n1 [Example 2-208, 3-Methyl-1-(6-methyl-2-pyridinyl)-1,9-dihydro-4H-pyrazolo[3,4-b]quinolin-4-one] | 252 °C
24 | CC(C)Cc1nn(-c2ccccn2)c2[nH]c3ccccc3c(=O)c12 [Example 2-174, 3-Isobutyl-1-(2-pyridinyl)-1,9-dihydro-4H-pyrazolo[3,4-b]quinolin-4-one] | 167 to 169 °C
25 | Cc1nn(-c2ccccn2)c2nc3ccsc3c(Cl)c12 [Example 2-155, 4-Chloro-3-methyl-1-(2-pyridinyl)-1H-pyrazolo[3,4-b]thieno[2,3-e]pyridine] | 230 to 231 °C
26 | Cc1nn(-c2ccccn2)c2[nH]c3ccc([N+](=O)[O-])cc3c(=O)c12 [Example 2-54, 3-Methyl-6-nitro-1-(2-pyridinyl)-1,9-dihydro-4H-pyrazolo[3,4-b]quinolin-4-one] | > 300 °C
27 | Cc1cccnc1-n1nc(C)c2c(=O)c3c(C)cccc3[nH]c21 [Example 2-125, 3,5-Dimethyl-1-(3-methyl-2-pyridinyl)-1,9-dihydro-4H-pyrazolo[3,4-b]quinolin-4-one] | 195 to 197 °C
28 | CCc1c2ccccc2nc2c1c(C)nn2-c1ccccn1 [Example 2-102, 4-Ethyl-3-methyl-1-(2-pyridinyl)-1H-pyrazolo[3,4-b]quinoline] | 112 to 114 °C
29 | Cc1cccc2nc3c(c(C)nn3-c3ccccn3)c(Cl)c12 [Example 2-29, 4-Chloro-3,5-dimethyl-1-(2-pyridinyl)-1H-pyrazolo[3,4-b]quinoline] | 167 to 169 °C
30 | Cc1nn(-c2ccccn2)c2[nH]c3c(Cl)cc(Cl)cc3c(=O)c12 [Example 2-77, 6,8-Dichloro-3-methyl-1-(2-pyridinyl)-1,9-dihydro-4H-pyrazolo[3,4-b]quinolin-4-one] | 288 to 289 °C
31 | Cc1nn(-c2ccccn2)c2nc3ccccc3c(OC3CCCCC3)c12 [Example 2-22, 4-Cyclohexyloxy-3-methyl-1-(2-pyridinyl)-1H-pyrazolo[3,4-b]quinoline] | 88 to 91 °C
32 | Cc1nn(Cc2ccccn2)c2nc3ccccc3c(Cl)c12 [Example 2-186, 4-Chloro-3-methyl-1-(2-pyridinylmethyl)-1H-pyrazolo[3,4-b]quinoline] | 113 to 115 °C
33 | Cc1nn(-c2ccncc2)c2nc3ccccc3c(N(C)C)c12 [Example 2-142, N,N-Dimethyl-N-[3-methyl-1-(4-pyridinyl)-1H-pyrazolo[3,4-b]quinolin-4-yl]amine] | 155 to 156 °C
34 | Cc1ccc(-n2nc(C)c3c(N)c4ccccc4nc32)nc1 [Example 2-116, 3-Methyl-1-(5-methyl-2-pyridinyl)-1H-pyrazolo[3,4-b]quinolin-4-ylamine] | 229 to 232 °C
35 | Cc1cc(C)nc(-n2nc(C)c3c(Cl)c4ccccc4nc32)n1 [Example 2-147, 4-Chloro-1-(4,6-dimethyl-2-pyrimidinyl)-3-methyl-1H-pyrazolo[3,4-b]quinoline] | 191 to 192 °C
36 | Cc1nn(-c2ccccn2)c2nc3ccccc3c(NC3CC3)c12.Cl | 208 to 211 °C
37 | Cc1cccnc1-n1nc(C)c2c(N)c3ccccc3nc21 [Example 2-119, 3-Methyl-1-(3-methyl-2-pyridinyl)-1H-pyrazolo[3,4-b]quinolin-4-ylamine] | 202 to 205 °C
38 | Cc1nn(-c2ccccn2)c2nc3cc(F)c(Cl)cc3c(Cl)c12 [Example 2-98, 4,6-Dichloro-7-fluoro-3-methyl-1-(2-pyridinyl)-1H-pyrazolo[3,4-b]quinoline] | 211 °C
39 | Cc1cccc(-n2nc(C)c3c(=O)c4cc(F)c(F)cc4[nH]c32)n1 [Example 2-209, 6,7-Difluoro-3-methyl-1-(6-methyl-2-pyridinyl)-1,9-dihydro-4H-pyrazolo[3,4-b]quinolin-4-one] | 301 to 302 °C
40 | COc1ccc2nc3c(c(C)nn3-c3ccccn3)c(N)c2c1 [Example 2-42, 6-Methoxy-3-methyl-1-(2-pyridinyl)-1H-pyrazolo[3,4-b]quinolin-4-ylamine] | 267 to 268 °C
41 | Cc1nn(Cc2ccncc2)c2[nH]c3ccccc3c(=O)c12 [Example 2-192, 3-Methyl-1-(4-pyridinylmethyl)-1,9-dihydro-4H-pyrazolo[3,4-b]quinolin-4-one] | 277 to 280 °C
42 | Clc1c2ccccc2nc2c1c(CBr)nn2-c1ccccn1 [Example 2-168, 3-Bromomethyl-4-chloro-1-(2-pyridinyl)-1H-pyrazolo[3,4-b]quinoline] | 203 to 205 °C
43 | Cc1nn(-c2cccnc2)c2nc3cc(F)c(F)cc3c(Cl)c12 [Example 2-202, 4-Chloro-6,7-difluoro-3-methyl-1-(3-pyridinyl)-1H-pyrazolo[3,4-b]quinoline] | 192 to 194 °C
44 | Cc1nn(-c2ccccn2)c2ncc(C(=O)c3ccccc3)c(O)c12 [Example 1-4, [4-Hydroxy-3-methyl-1-(2-pyridinyl)-1H-pyrazolo[3,4-b]pyridin-5-yl]phenylmethanone] | 224 to 226 °C
